Laboratory results taken from ChEMBL document CHEMBL1131344, “The synthesis of novel matrix metalloproteinase inhibitors employing the Ireland-Claisen rearrangement” (Bioorg Med Chem Lett, 1998).

Legend:
[1] = biological target: T1, Interstitial collagenase (Homo sapiens) (UniProt P03956); test: Inhibition of matrix metalloprotease-1 (HFC)
T1 sequence (whole entry): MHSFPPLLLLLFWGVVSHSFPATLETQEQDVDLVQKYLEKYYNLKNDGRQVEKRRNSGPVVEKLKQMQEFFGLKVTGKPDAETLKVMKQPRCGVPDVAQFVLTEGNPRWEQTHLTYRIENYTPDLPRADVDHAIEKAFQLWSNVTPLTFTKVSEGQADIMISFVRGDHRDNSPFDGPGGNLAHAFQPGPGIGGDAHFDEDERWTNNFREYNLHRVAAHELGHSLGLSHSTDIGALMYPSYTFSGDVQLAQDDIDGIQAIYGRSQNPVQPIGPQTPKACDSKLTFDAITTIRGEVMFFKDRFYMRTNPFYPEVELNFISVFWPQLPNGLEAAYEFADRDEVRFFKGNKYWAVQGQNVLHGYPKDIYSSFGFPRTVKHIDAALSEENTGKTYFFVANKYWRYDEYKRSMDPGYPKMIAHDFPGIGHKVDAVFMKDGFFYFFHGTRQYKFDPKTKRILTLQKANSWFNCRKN

[2] = biological target: 72 kDa type IV collagenase (Homo sapiens) (UniProt P08253); test: Inhibition of matrix metalloprotease-2 (Gel.A)
Rattus norvegicus [3] = species: Rattus norvegicus; test: Compound was tested for area under curve in rat; type: ADME, organism-based; parameters: concentration or dose not given beside the values; conditions: in vivo
[4] = biological target: Stromelysin-1 (Homo sapiens) (UniProt P08254); test: Inhibition of matrix metalloprotease-3 (Stromelysin-1)
[5] = biological target: T2, Matrilysin (Homo sapiens) (UniProt P09237); test: Inhibition of matrix metalloprotease-7 (Matrilysin)
T2 sequence (whole entry): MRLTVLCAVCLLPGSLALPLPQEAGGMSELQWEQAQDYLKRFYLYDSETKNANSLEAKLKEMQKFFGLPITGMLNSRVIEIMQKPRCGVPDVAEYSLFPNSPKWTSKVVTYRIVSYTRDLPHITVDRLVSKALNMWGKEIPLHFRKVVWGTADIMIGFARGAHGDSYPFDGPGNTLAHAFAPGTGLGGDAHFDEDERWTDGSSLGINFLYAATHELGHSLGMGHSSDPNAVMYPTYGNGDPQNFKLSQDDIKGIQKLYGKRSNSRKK

[6] = Maximum concentration value was evaluated for high sustained blood levels in rat after 30 min of administration; type: ADME, organism-based
Rattus norvegicus [7] = test: Compound was tested for inhibition of Tumor Necrosis Factor production in rat at a peroral dose of 2.5 mg/kg; type: functional; conditions: route oral
Rattus norvegicus [8] = test: Compound was tested for inhibition of Tumor Necrosis Factor production in rat at a peroral dose of 10 mg/kg; type: functional; conditions: route oral
Rattus norvegicus [9] = test: Compound was tested for inhibition of Tumor Necrosis Factor production in rat at a peroral dose of 5 mg/kg; type: functional; conditions: route oral
[10] = Maximum concentration value was evaluated for high sustained blood levels in rat after 1 hr of administration; type: ADME, organism-based
[11] = Maximum concentration value was evaluated for high sustained blood levels in rat after 2 hr of administration; type: ADME, organism-based

Chain of 72 kDa type IV collagenase (Homo sapiens) (P08253 110-660 limits assumed): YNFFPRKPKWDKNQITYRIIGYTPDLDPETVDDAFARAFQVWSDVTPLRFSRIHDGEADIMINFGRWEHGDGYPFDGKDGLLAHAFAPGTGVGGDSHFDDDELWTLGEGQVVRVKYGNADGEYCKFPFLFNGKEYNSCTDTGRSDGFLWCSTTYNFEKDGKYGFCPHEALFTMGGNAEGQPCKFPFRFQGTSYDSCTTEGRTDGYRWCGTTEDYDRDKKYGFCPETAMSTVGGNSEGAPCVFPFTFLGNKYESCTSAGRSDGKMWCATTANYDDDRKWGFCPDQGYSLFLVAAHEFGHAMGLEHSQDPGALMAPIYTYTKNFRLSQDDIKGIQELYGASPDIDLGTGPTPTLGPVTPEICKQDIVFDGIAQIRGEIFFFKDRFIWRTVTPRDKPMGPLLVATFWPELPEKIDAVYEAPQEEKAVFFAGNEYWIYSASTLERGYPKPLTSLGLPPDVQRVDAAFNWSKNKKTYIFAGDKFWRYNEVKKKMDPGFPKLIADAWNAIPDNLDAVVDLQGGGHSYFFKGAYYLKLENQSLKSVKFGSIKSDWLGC
Chain of Stromelysin-1 (Homo sapiens) (P08254 100-477 limits assumed): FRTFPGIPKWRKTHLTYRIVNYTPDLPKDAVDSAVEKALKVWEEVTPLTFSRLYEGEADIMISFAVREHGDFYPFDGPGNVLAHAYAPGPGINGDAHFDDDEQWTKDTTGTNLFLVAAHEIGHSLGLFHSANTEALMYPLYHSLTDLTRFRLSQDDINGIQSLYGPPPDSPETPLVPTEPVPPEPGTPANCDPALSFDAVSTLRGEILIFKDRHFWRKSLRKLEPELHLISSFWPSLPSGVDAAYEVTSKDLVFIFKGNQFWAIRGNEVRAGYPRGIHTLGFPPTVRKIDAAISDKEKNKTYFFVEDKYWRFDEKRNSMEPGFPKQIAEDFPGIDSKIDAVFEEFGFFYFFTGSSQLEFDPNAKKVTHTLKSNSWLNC

SMILES	Activity [1] [nM]	Activity [2] [nM]	AUC (Rattus norvegicus [3]) [ng·h/mL]	Activity [4] [nM]	Activity [5] [nM]	Cmax [6] [ng/mL]	inhibition in vivo at 2.5 mg/kg (Rattus norvegicus [7]) [%]	inhibition in vivo at 10 mg/kg (Rattus norvegicus [8]) [%]	inhibition in vivo at 5 mg/kg (Rattus norvegicus [9]) [%]	Cmax [10] [ng/mL]	Cmax [11] [ng/mL]
CNC(=O)[C@@H](NC(=O)[C@H](CC(C)C)[C@@H](C(=O)NO)C(C)C)C(C)(C)C	1	1	895	40	5	376	–	–	–	–	–
CC(C)C[C@@H](C(=O)N[C@H](C(=O)Nc1ccccn1)C(C)(C)C)[C@@H](C(=O)NO)C1CCC(C)CC1 (stereo not given in full)	5	40	–	20	3	–	–	–	–	–	–
CNC(=O)[C@@H](NC(=O)[C@H](CC(C)C)[C@@H](C(=O)NO)C1CCC(C)CC1)C(C)(C)C (stereo not given in full)	4	9	–	40	7	–	–	–	–	–	–
CNC(=O)[C@@H](NC(=O)[C@H](CC(C)C)[C@@H](C(=O)NO)C1CCN(C)CC1)C(C)(C)C	30	3	–	500	200	–	–	–	–	–	–
CNC(=O)[C@@H](NC(=O)[C@H](CC(C)C)[C@@H](C(=O)NO)C1CCSC1)C(C)(C)C (stereo not given in full)	5	5	–	40	4	–	–	–	–	–	–
CNC(=O)[C@@H](NC(=O)C(CC(C)C)C(C(=O)NO)C1CC1)C(C)(C)C (single isomer, unassigned)	20	100	1020	300	200	106	–	–	–	–	–
CNC(=O)[C@@H](NC(=O)C(CC(C)C)C(O)C(=O)NO)C(C)(C)C (single isomer, unassigned)	5	6	–	200	20	–	11	69	50	–	–
CNC(=O)[C@@H](NC(=O)C(CC(C)C)C(C(=O)NO)C1CCCC1)C(C)(C)C (single isomer, unassigned)	4	3	2090	30	20	–	94	98	92	336	–
CNC(=O)[C@@H](NC(=O)C(CC(C)C)C(C(=O)NO)C1CCCCC1)C(C)(C)C (single isomer, unassigned)	4	10	155	30	20	–	–	–	–	–	9.75
CC(C)CC(C(=O)N[C@H](C(=O)Nc1ccccn1)C(C)(C)C)C(C(=O)NO)C1CCCCC1 (single isomer, unassigned)	4	10	–	20	–	–	–	–	–	–	–
CNC(=O)[C@@H](NC(=O)C(CC(C)C)C(C(=O)NO)C1CCC(C(C)(C)C)CC1)C(C)(C)C (single isomer, unassigned)	40	30	–	100	50	–	–	–	–	–	–
CNC(=O)[C@@H](NC(=O)C(CC(C)C)C(C(=O)NO)C1CCC1)C(C)(C)C (single isomer, unassigned)	3	2	–	50	20	–	–	–	–	–	–
CC(C)CC(C(=O)N[C@H](C(=O)Nc1ccccn1)C(C)(C)C)C(C(=O)NO)C1CCCC1 (single isomer, unassigned; 12j) [listing 1 of 2 here]	–	–	899	–	–	–	–	–	–	–	70.7
CC(C)CC(C(=O)N[C@H](C(=O)Nc1ccccn1)C(C)(C)C)C(C(=O)NO)C1CCCC1 (single isomer, unassigned; 12j) [listing 2 of 2 here]	3	30	–	20	3	–	–	–	–	–	–
CC(C)CC(C(=O)N[C@H](C(=O)Nc1ccccn1)C(C)(C)C)C(C(=O)NO)C1CCCC1 (single isomer, unassigned; 12m)	20	100	–	50	–	–	–	–	–	–	–
